For 46 molecules, inhibition and IC50 results are on record in ChEMBL document CHEMBL6096727, “Structure-Based Rational Design and Evaluation of BET-Aurora Kinase Dual-Inhibitors for Treatment of Cancers” (J Med Chem, 2025).

Test [1] addresses Cyclin-dependent kinase 9 (Homo sapiens) (UniProt P50750). Particulars: dose 100.0 nM.
Description: Inhibition of CDK9 (unknown origin) using caliper substrate CTD3 at 100 nM by mobility shift assay relative to control
Test [2] addresses T1, Bromodomain-containing protein 2 (Homo sapiens, UniProt P25440). Description: Inhibition of BRD2 BD1 (unknown origin) incubated for 2 to 4 hrs under dark condition by FP assay.
Test [3] has as its target T1, Bromodomain-containing protein 2. As to the kind of experiment: Inhibition of BRD2 BD2 (unknown origin) incubated for 2 to 4 hrs under dark condition by FP assay.
Test [4] has as its target Bromodomain-containing protein 4 (Homo sapiens, UniProt O60885). As to the kind of experiment: Inhibition of BRD4 BD1 (unknown origin).
In a further test the test system is HCT-116. Description: Antiproliferative activity against human HCT-116 cells incubated for 48 hrs by 3H-thymidine uptake assay. Type of test: functional, cell-based.

Chain of Cyclin-dependent kinase 9 (Homo sapiens) (P50750 whole entry): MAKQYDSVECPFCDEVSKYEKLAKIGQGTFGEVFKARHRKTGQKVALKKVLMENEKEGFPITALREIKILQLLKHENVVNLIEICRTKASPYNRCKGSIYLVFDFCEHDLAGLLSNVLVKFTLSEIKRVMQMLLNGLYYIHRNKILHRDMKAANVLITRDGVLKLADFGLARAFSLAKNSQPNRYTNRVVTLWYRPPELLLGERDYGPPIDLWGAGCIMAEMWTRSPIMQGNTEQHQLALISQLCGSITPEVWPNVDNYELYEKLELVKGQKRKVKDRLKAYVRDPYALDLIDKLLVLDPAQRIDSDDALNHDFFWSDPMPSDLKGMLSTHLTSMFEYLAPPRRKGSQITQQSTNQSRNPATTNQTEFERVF
T1 sequence (P25440 whole entry): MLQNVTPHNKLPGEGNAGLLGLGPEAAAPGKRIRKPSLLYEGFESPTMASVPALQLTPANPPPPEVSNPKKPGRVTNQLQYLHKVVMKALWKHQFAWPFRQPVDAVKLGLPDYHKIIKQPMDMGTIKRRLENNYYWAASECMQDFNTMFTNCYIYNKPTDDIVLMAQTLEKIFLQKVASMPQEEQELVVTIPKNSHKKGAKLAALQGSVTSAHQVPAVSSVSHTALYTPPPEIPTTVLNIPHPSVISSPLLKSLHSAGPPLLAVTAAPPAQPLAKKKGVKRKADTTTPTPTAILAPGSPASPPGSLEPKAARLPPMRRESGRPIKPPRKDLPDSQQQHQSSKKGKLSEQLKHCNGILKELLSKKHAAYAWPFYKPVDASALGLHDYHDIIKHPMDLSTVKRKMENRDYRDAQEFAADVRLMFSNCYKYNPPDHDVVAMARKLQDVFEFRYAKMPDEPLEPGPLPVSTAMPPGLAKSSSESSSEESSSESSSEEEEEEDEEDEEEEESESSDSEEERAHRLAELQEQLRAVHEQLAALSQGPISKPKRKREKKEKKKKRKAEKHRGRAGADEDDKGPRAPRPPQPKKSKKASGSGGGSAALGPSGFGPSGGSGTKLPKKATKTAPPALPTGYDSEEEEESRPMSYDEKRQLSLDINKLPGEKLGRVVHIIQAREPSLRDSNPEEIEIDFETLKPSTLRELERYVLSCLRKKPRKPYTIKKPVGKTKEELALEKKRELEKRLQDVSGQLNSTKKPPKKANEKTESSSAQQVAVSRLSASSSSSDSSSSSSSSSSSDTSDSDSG

On to `Cc1c(-c2nc(Nc3ccc4c(c3)N(C(C)C)[C@H](C)C(=O)N4C)ncc2F)c(C2CCCC2)nn1C`, for which the inhibition in test [1] worked out at 8.2%.
The same measure, in the same setting: as for `Cc1nn(C)cc1-c1ccnc(Nc2ccc3c(c2)N(C(C)C)[C@H](C)C(=O)N3C)n1`, the figure is 3.2%.
With `Cc1c(-c2nc(Nc3ccc4c(c3)N(C(C)C)[C@H](C)C(=O)N4C)ncc2F)c(C2CC2)nn1C`, the values for the IC50 in test [2] and in test [3] were 35 nM and 48 nM, respectively. Also, the inhibition in test [1] came to 15%.
Turning to `Cc1c(-c2nc(Nc3ccc4c(c3)N(C(C)C)[C@H](C)C(=O)N4C)ncc2F)c(C2CCC2)nn1C`, in test [1], the inhibition turned out to be 18%.
Still for that read-out and setting: as for `CC(C)N1c2cc(Nc3nccc(-c4ccn(C)n4)n3)ccc2N(C)C(=O)[C@H]1C`, the figure is -1.4%; as for `CC(C)N1c2cc(Nc3nccc(-c4c[nH]nc4C4CCCC4)n3)ccc2N(C)C(=O)[C@H]1C`, 62%.
The same measure, in the same setting: as for `Cc1n[nH]c(C)c1-c1ccnc(Nc2ccc3c(c2)N(C(C)C)[C@H](C)C(=O)N3C)n1`, the figure is 5.8%; as for `Cc1nn(-c2ccccc2)cc1-c1ccnc(Nc2ccc3c(c2)N(C(C)C)[C@H](C)C(=O)N3C)n1`, 0.9%; as for `Cc1cc(Nc2ccnc(Nc3ccc4c(c3)N(C(C)C)[C@H](C)C(=O)N4C)n2)n(C)n1`, -0.3%.
Still for that read-out and setting: as for `CC(C)N1c2cc(Nc3nccc(Nc4cc(C(C)(C)C)nn4C)n3)ccc2N(C)C(=O)[C@H]1C`, the figure is 0%; as for `Cc1c(-c2ccnc(Nc3cc(F)c4c(c3)N(C(C)C)[C@H](C)C(=O)N4C)n2)c(C2CC2)nn1C`, -0.9%.
With `CC[C@@H]1C(=O)N(C)c2ccc(Nc3ncc(F)c(-c4c(C5CC5)nn(C)c4C)n3)cc2N1C(C)C`, the inhibition in test [1] was found to be 19%.
Turning to `CC(C)N1c2cc(Nc3nccc(-c4ccnn4C(C)C)n3)ccc2N(C)C(=O)[C@H]1C`, in test [1], the inhibition turned out to be 14%.
Turning to `Cc1nn(C)c(C2CC2)c1-c1ccnc(Nc2ccc3c(c2)N(C(C)C)[C@H](C)C(=O)N3C)n1`, the inhibition in test [1] was 3.4%.
As to `Cc1nn(C(C)C)cc1-c1ccnc(Nc2ccc3c(c2)N(C(C)C)[C@H](C)C(=O)N3C)n1`, in test [1], the inhibition worked out at 2.5%.
`CC(C)N1c2cc(Nc3nccc(-c4ccccc4)n3)ccc2N(C)C(=O)C1C` (stereo not drawn) returned an IC50 in test [4] of 193 nM.
Turning to `Cc1n[nH]c(C2CCC2)c1-c1ccnc(Nc2ccc3c(c2)N(C(C)C)[C@H](C)C(=O)N3C)n1`, in test [1], the inhibition was found to be 5.9%.
For `CC(C)c1n[nH]cc1-c1ccnc(Nc2ccc3c(c2)N(C(C)C)[C@H](C)C(=O)N3C)n1`, the inhibition in test [1] came to 69%.
On the same count and under the same terms, the figure for `CC(C)N1c2cc(Nc3nccc(-c4cc[nH]n4)n3)ccc2N(C)C(=O)[C@H]1C` is 5.4%; for `Cc1c(-c2ccnc(Nc3ccc4c(n3)N(C(C)C)[C@H](C)C(=O)N4C)n2)c(C2CC2)nn1C` it is 0.8%.
The same measure, in the same setting: the figure for `CC(C)N1c2cc(Nc3nccc(Nc4cc(C(C)(C)C)n[nH]4)n3)ccc2N(C)C(=O)[C@H]1C` is 45%; for `Cc1c(-c2nc(Nc3ccc4c(c3)N(C(C)C)[C@H](C)C(=O)N4C)ncc2Cl)c(C2CC2)nn1C` it is 23%; for `Cc1cc(Nc2ccnc(Nc3ccc4c(c3)N(C(C)C)[C@H](C)C(=O)N4C)n2)n(C(C)C)n1` it is 0.5%.
For the molecule `CC[C@@H]1C(=O)N(C)c2ccc(Nc3ncc(F)c(-c4c(C5CCCC5)nn(C)c4C)n3)cc2N1C(C)C`, in test [1], the inhibition stood at 10%.
As for `Cc1cc(Nc2ccnc(Nc3ccc4c(c3)N(C(C)C)[C@H](C)C(=O)N4C)n2)n(-c2ccccc2)n1`, the inhibition in test [1] is 5.3%.
Same read-out and setting: the figure for `CCn1nccc1-c1ccnc(Nc2ccc3c(c2)N(C(C)C)[C@H](C)C(=O)N3C)n1` is 4.7%.
Still for that read-out and setting: the figure for `Cc1n[nH]c(C2CC2)c1-c1ccnc(Nc2ccc3c(c2)N(C(C)C)[C@H](C)C(=O)N3C)n1` is 12%.
The same measure, in the same setting: the figure for `Cc1cnc(Nc2ccc3c(c2)N(C(C)C)[C@H](C)C(=O)N3C)nc1-c1c(C2CC2)nn(C)c1C` is 0%; for `Cc1c(-c2ccnc(Nc3ccc4c(c3)N(C(C)C)[C@H](C)C(=O)N4C)n2)c(C2CC2)nn1C` it is 6.5%; for `Cc1n[nH]cc1-c1ccnc(Nc2ccc3c(c2)N(C(C)C)[C@H](C)C(=O)N3C)n1` it is 53%.
The molecule `Cc1sc2c(c1C)C(c1ccc(Cl)cc1)=N[C@@H](CC(=O)OC(C)(C)C)c1nnc(C)n1-2` registered an IC50 in the test with HCT-116 of 6150 nM. This counts as single-digit micromolar.
On to `CC[C@@H]1C(=O)N(C)c2ccc(Nc3nccc(-c4c(C5CC5)nn(C)c4C)n3)cc2N1C(C)C`, for which the inhibition in test [1] turned out to be 2.7%.
Still for that read-out and setting: the figure for `CC(C)N1c2cc(Nc3nccc(-c4cn[nH]c4)n3)ccc2N(C)C(=O)[C@H]1C` is 73%; for `CC[C@@H]1C(=O)N(C)c2ccc(Nc3ncc(F)c(-c4c(C5CCC5)nn(C)c4C)n3)cc2N1C(C)C` it is 10%; for `Cc1cc(-c2ccnc(Nc3ccc4c(c3)N(C(C)C)[C@H](C)C(=O)N4C)n2)n(C)n1` it is -0.4%.
`CC(C)N1c2cc(Nc3nccc(-c4c[nH]nc4C4CCCCC4)n3)ccc2N(C)C(=O)[C@H]1C`: in test [1], the inhibition is 56%.
`Cc1c(-c2ccnc(Nc3ccc4c(c3)N(C(C)C)[C@H](C)C(=O)N4C)n2)cnn1C`: the inhibition in test [1] was 25%.
In the case of `Cc1c(-c2ccnc(Nc3ccc4c(c3)N(C3CCC3)[C@H](C)C(=O)N4C)n2)c(C2CC2)nn1C`, in test [1], the inhibition came out at 9.1%.
In the case of `CC(C)N1c2cc(Nc3nccc(Nc4cc(-c5ccccc5)nn4C)n3)ccc2N(C)C(=O)[C@H]1C`, in test [1], the inhibition was -1.5%.
Same read-out and setting: the figure for `Cc1c(-c2ccnc(Nc3ccc4c(c3)N(C3CCCC3)[C@H](C)C(=O)N4C)n2)c(C2CC2)nn1C` is 4.6%; for `CC(C)N1c2cc(Nc3nccc(-c4ccnn4C)n3)ccc2N(C)C(=O)[C@H]1C` it is -1.3%; for `CC(C)N1c2cc(Nc3nccc(Nc4cc(C5CC5)nn4C)n3)ccc2N(C)C(=O)[C@H]1C` it is 3.8%.
Still for that read-out and setting: the figure for `CC(C)N1c2cc(Nc3nccc(-c4c[nH]nc4-c4ccccc4)n3)ccc2N(C)C(=O)[C@H]1C` is 23%; for `Cc1cc(Nc2ccnc(Nc3ccc4c(c3)N(C(C)C)[C@H](C)C(=O)N4C)n2)n(C(C)(C)C)n1` it is -1.5%; for `CCn1cc(-c2ccnc(Nc3ccc4c(c3)N(C(C)C)[C@H](C)C(=O)N4C)n2)c(C)n1` it is 9.4%.
On to `CCc1n[nH]c(C2CC2)c1-c1ccnc(Nc2ccc3c(c2)N(C(C)C)[C@H](C)C(=O)N3C)n1`, for which the inhibition in test [1] worked out at 5.9%.
